Results as given in publication PMC11171218, “N-Benzylated 5-Hydroxybenzothiophene-2-carboxamides as Multi-Targeted Clk/Dyrk Inhibitors and Potential Anticancer Agents” (Cancers, 2024).

Columns and labels:
[1] = tested on: HCT-116 cells; experiment: CCK-8 cell viability, HCT-116; format: cell-based; details: Homo sapiens, 72 h; for inhibition at 20 µM: HCT-116, read-out: HCT-[…] Inh. at 20 μM, CCK-8, mean ± S.E.M. (n = 3); for IC50: HCT-116, read-out: HCT-116 IC50 in µM, CCK-8, 50% inhibition of viability
Experimental: (§1) All cells were purchased from Bioresource Collection and Research Center (Hsinchu, Taiwan) and cultured in corresponding media supplemented with 10% fetal bovine serum, 1 × Antibiotic-Antimycotic at 37 °C in a humidified incubator with 5% CO2. […] T24 cells were cultured in McCoy’s 5a media. IEC-6 cells were cultured in DMEM media supplemented with 5% fetal bovine serum, 1 × Antibiotic–Antimycotic, and 0.1 unit/mL insulin.
(§2) Cells were incubated with the Cell Counting Kit-8 (CCK-8) reagent (TargetMol, Boston, MA, USA) at 37 °C for 2 h. The cell viability was determined by spectrophotometer at 450 nm.

[2] = target: Clk3 (Homo sapiens, UniProt P49761); experiment: Z'-LYTE kinase inhibition assay, Clk3; format: biochemical; details: 1 µM compound; screening by Thermo Fisher Scientific
Clk3, sequence (P49761 whole entry): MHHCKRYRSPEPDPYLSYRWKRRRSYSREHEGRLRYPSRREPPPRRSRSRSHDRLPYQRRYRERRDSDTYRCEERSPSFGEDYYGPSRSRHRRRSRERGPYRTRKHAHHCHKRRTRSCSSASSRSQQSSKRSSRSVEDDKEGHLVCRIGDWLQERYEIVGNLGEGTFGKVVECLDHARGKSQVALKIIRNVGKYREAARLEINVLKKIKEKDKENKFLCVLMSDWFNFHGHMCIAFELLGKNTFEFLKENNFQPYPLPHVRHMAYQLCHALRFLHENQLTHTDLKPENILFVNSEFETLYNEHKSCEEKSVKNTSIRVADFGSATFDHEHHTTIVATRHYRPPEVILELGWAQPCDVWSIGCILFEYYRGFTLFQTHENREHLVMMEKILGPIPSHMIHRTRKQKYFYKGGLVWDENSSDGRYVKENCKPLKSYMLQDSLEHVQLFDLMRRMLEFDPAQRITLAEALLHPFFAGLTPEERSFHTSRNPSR
Text: (§3) 3. Experimental procedure for protein kinases and inhibition assays.
(§4) 3.1 The Z ́ -LYTE biochemical assay for screening and IC 50 determination for Clk1, Dyrk1A, Dyrk1B, Clk2 and Clk3 kinases.
(§5) The assay employs a fluorescence-based, coupled-enzyme format and is based on the differential sensitivity of phosphorylated and non-phosphorylated peptides to proteolytic cleavage. The peptide substrate is labeled with two fluorophores-one at each end-that make up a FRET pair. In the primary reaction, the kinase transfers the gamma-phosphate of ATP to a single tyrosine, serine, or threonine residue in a synthetic FRET-peptide. In the secondary reaction, a site-specific protease recognizes and cleaves non-phosphorylated FRET-peptides. Phosphorylation of FRET-peptides suppresses cleavage by the Development Reagent. Cleavage disrupts FRET between the donor (i.e., coumarin) and acceptor (i.e., fluorescein) fluorophores on the FRET-peptide, whereas uncleaved, phosphorylated FRET-peptides maintain FRET. A ratiometric method, which calculates the ratio (the Emission Ratio) of donor emission to acceptor emission after excitation of the donor fluorophore at 400 nm, is used to quantitate reaction progress. Both cleaved and uncleaved FRET-peptides contribute to the fluorescence signals and therefore to the Emission Ratio. The extent of phosphorylation of the FRET-peptide can be calculated from the Emission Ratio. The Emission Ratio will remain low if the FRET-peptide is phosphorylated (i.e., no kinase inhibition) and will be high if the FRET-peptide is non-phosphorylated (i.e., kinase inhibition).
(§6) The IC 50 values were determined for compounds displaying significant % inhibition in the screening step. IC 50 determination was done through testing at a range of concentrations with two […]
(§7) two independent experiments. […]
Development Reagent A is added. […]
3.1.5 Clk3 kinase assay specific conditions:
The 2X Clk3 / Ser/Thr 18 mixture is prepared in 50 mM Tris pH 8.5, 0.01% BRIJ-35, 10 mM […]
(§8) MgCl2, 1 mM EGTA, 0.02% NaN3. […]
of Development Reagent A is added.

[3] = tested on: MCF-7 cells; experiment: CCK-8 cell viability, MCF-7; format: cell-based; details: Homo sapiens, MCF7, 72 h, CCK-8, mean ± S.E.M. (n = 3), read-out: MCF-7 % Inh. at μM
Experimental: as §1, §2

[4] = target: Clk1 (Homo sapiens, UniProt P49759); experiment: Z'-LYTE kinase inhibition assay, Clk1; format: biochemical; details: for IC50: ATP conc. equivalent to Km; for inhibition at 1 µM: read-out: Clk1 % Inh. At 1 µM
Clk1, sequence (P49759 whole entry): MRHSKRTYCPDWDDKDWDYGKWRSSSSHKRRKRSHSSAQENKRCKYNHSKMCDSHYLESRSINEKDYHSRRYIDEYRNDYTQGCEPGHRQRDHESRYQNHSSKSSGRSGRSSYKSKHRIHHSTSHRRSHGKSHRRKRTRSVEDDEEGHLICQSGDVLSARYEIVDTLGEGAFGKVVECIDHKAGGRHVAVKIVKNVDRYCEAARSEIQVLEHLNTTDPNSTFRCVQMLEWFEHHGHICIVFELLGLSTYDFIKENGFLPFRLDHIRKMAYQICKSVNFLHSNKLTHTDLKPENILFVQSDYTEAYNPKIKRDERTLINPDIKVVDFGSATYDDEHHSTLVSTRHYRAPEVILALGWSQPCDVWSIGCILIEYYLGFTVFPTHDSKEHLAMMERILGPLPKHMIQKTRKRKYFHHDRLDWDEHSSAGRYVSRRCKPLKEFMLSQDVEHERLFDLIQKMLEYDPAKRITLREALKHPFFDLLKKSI
Text: as §3, §4, §5, §6
two independent experiments.
3.1.1 Clk1 kinase assay specific conditions:
The 2x Clk1 / Ser/Thr 09 mixture is prepared in 50 mM HEPES pH 7.5, 0.01% BRIJ-35, 10 mM MgCl 2, 1 mM EGTA. The final 10 μL kinase reaction consists of 30 - 120 ng Clk1 and 2 μM Ser/Thr 09 in 50 mM HEPES pH 7.5, 0.01% BRIJ-35, 10 mM MgCl 2, 1 mM EGTA. After the 1 h

[5] = target: Clk2 (Homo sapiens, UniProt P49760); experiment: Z'-LYTE kinase inhibition assay, Clk2; format: biochemical; details: for inhibition at 1 µM: 1 µM compound, screening by Thermo Fisher Scientific; for IC50: ATP concentration equivalent to Km
Clk2, sequence (P49760 whole entry): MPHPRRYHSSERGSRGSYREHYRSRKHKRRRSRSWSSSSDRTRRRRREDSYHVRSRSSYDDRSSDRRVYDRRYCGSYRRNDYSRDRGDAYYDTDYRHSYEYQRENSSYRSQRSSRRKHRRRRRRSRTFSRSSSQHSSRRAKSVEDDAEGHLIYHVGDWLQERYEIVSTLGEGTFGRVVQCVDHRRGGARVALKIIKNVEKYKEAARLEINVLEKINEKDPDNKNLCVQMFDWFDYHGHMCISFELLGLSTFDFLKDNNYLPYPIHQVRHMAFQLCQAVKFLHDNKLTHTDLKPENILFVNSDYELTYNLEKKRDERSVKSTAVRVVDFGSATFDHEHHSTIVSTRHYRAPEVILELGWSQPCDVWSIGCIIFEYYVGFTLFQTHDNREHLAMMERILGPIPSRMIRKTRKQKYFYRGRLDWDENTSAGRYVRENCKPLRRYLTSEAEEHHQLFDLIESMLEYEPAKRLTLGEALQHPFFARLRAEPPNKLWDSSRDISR
Text: as §3, §4, §5, §6, §7
Development Reagent A is added.
3.1.4 Clk2 kinase assay specific conditions:
The 2X Clk2 / Ser/Thr 06 mixture is prepared in 50 mM HEPES pH 7.5, 0.01% BRIJ-35, 10 mM […]
Ser/Thr 06 in 50 mM HEPES pH 7.5, 0.01% BRIJ-35, 10 mM MgCl2, 1 mM EGTA. […]
as §8

[6] = tested on: T24 cells; experiment: CCK-8 cell viability, T24; format: cell-based; details: Homo sapiens, T-24, 72 h; for inhibition at 20 µM: CCK-8, mean ± S.E.M. (n = 3), read-out: T24 % Inh. at μM; for IC50: CCK-8, 50% inhibition of viability
Experimental: as §1, §2

[7] = tested on: A549 cells; experiment: CCK-8 cell viability, A549; format: cell-based; details: Homo sapiens, 72 h, CCK-8, mean ± S.E.M. (n = 3), read-out: A549 % Inh. at μM
Experimental: as §1, §2

[8] = tested on: Hela cells; experiment: CCK-8 cell viability, Hela; format: cell-based; details: Homo sapiens, 72 h; for inhibition at 20 µM: CCK-8, mean ± S.E.M. (n = 3), read-out: Hela % Inh. at μM; for IC50: CCK-8, 50% inhibition of viability
Experimental: as §1, §2

[9] = tested on: U87 cells; experiment: CCK-8 cell viability, U87; format: cell-based; details: Homo sapiens, U-87 MG, 72 h; for inhibition at 20 µM: CCK-8, mean ± S.E.M. (n = 3), read-out: U87 % Inh. at μM
Experimental: as §1, §2

| SMILES | melting point [°C] | inhibition at 20 µM [1] [%] | inhibition at 1 µM [2] [%] | inhibition at 20 µM [3] [%] | IC50 [4] [µM] | inhibition at 1 µM [4] [%] | inhibition at 1 µM [5] [%] | inhibition at 20 µM [6] [%] | inhibition at 20 µM [7] [%] | inhibition at 20 µM [8] [%] | IC50 [8] [µM] | inhibition at 20 µM [9] [%] | IC50 [1] [µM] | IC50 [5] [µM] | IC50 [6] [µM] | IC50 ([9]; CCK-8, 50% inhibition of viability) [µM] | Improvement in inhibitory activity against Clk1 compared to compound 1 ([4]; ratio of IC50 vs compound 1) [fold] |
| --- | --- | --- | --- | --- | --- | --- | --- | --- | --- | --- | --- | --- | --- | --- | --- | --- | --- |
| COc1ccccc1CNC(=O)c1cc2cc(O)ccc2s1 [Compound 11, 5-Hydroxy-N-(2-methoxybenzyl)benzo[b]thiophene-2-carboxamide] | 128.5 to 130.7 | 0 | 24 | 56.4 ± 4.47 | 0.725 | 60 | 50 | 55.3 ± 3.3 | 34.7 ± 3.91 | 62.1 ± 1.97 | 19.3 | 18.1 ± 0.81 |  |  |  |  |  |
| COc1cccc(CNC(=O)c2cc3cc(O)ccc3s2)c1 [Compound 12, 5-Hydroxy-N-(3-methoxybenzyl)benzo[b]thiophene-2-carboxamide] |  | 75.7 ± 0.31 | 26 | 93.5 ± 0.17 | 0.153 | 86 | 62 | 100 | 41 ± 8.96 | 50.7 ± 2.41 |  | 60.1 ± 6.16 | 6.4 | 0.617 | 6 | 16.5 |  |
| O=C(NCc1cc(F)cc(F)c1)c1cc2cc(O)ccc2s1 [Compound 17, N-(3,5-Difluorobenzyl)-5-hydroxybenzo[b]thiophene-2-carboxamide] |  | 67.6 ± 0.58 | 26 | 20.9 ± 2.02 | 0.168 | 85 | 62 | 59.9 ± 2.05 | 38.8 ± 4.06 | 60.9 ± 2.82 | 18.1 | 47.3 ± 5.65 | 8.1 | 0.708 | 14.9 |  | 4 |
| O=C(NCc1cccc(F)c1)c1cc2cc(O)ccc2s1 [Compound 6, N-(3-Fluorobenzyl)-5-hydroxybenzo[b]thiophene-2-carboxamide] | 176.7 to 177.7 | 60.1 ± 3.11 | 27 | 16.2 ± 2.2 | 0.41 | 72 | 38 | 49.3 ± 6.04 | 36.5 ± 1.57 | 53.3 ± 2.22 |  | 21 ± 5.07 |  |  |  |  |  |
| O=C(NCc1cccc(Cl)c1)c1cc2cc(O)ccc2s1 [Compound 3, N-(3-Chlorobenzyl)-5-hydroxybenzo[b]thiophene-2-carboxamide] | 211.2 to 212.3 | 25.9 ± 2.54 | 22 | 15.6 ± 3.85 | 0.257 | 79 | 46 | 68.6 ± 3.95 | 54.7 ± 3.77 | 50.5 ± 3.93 |  | 32.2 ± 4.76 |  |  | 14 |  |  |
